# Laboratory results: patent publication US8222416B2, “Azaindole glucokinase activators” (Hoffmann-La Roche Inc., priority 2009, dated 2012)
# Target: T1, Recombinant human liver GK1 (GST-GK) (Homo sapiens, UniProt P35557)
# T1 construct: made in house; host or cells: E. coli
# T1 sequence (P35557 1-466 isoform P35557-2): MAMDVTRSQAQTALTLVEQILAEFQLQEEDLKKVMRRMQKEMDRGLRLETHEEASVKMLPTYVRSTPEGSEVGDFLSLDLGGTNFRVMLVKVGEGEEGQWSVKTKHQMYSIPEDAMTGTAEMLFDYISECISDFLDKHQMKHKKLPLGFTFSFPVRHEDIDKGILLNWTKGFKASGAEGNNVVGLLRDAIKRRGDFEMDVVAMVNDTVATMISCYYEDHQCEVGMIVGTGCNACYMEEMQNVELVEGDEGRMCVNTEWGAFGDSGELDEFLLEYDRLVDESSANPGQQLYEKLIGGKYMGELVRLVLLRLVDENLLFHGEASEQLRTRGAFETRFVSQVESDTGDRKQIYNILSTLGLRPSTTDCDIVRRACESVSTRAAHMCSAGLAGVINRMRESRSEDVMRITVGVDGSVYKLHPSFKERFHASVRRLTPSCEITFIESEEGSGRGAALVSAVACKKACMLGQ
# Assay: In vitro glucokinase activity assay (G6PDH-coupled, NADH, OD340)
# Type: biochemical
# Conditions: at 30 μM
# How it was run: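 GST-fused human liver GK1 from E. coli, run at 30° C. in pH 7.1 HEPES with 5 mM glucose, 1 mM ATP and 10% DMSO, coupled via G6PDH to NADH. OD340 rate measured after enzyme start; SC1.5 is the activator concentration raising activity 50% over DMSO control.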
row,fold activation of GK [fold at 30],Structure (SMILES)
1,1.4,"CCC(O)(CC)c1ccc(C(CC2CCCC2)c2cc3cccnc3[nH]2)cc1 (stereo not shown) [Example 83, 3-{4-[2-Cyclopentyl-1-(1H-pyrrolo[2,3-b]pyridin-2-yl)-ethyl]-phenyl}-pentan-3-ol]"

# Same assay, conditions: concentration of activator that produced a 50% increase in the activity of GK; 5 mM D-glucose, 30° C.
row,SC1.5 [µM],Structure (SMILES)
1,1.1,"Clc1ccc(C(CC2CCCC2)c2cc3cccnc3[nH]2)cc1Cl (stereo not shown) [Example 139, 2-[2-Cyclopentyl-1-(3,4-dichloro-phenyl)-ethyl]-1H-pyrrolo[2,3-b]pyridine]"
2,2.0,"CS(=O)(=O)c1ccc(C(CC2CCCC2)c2cc3cc(C(F)(F)F)cnc3[nH]2)cc1 (stereo not shown) [Example 126, 2-[2-Cyclopentyl-1-(4-methanesulfonyl-phenyl)-ethyl]-5-trifluoromethyl-1H-pyrrolo[2,3-b]pyridine]"
3,25.6,"CS(=O)(=O)c1ccc(C(CC2CCCC2)c2cc3cc(C(O)CO)cnc3[nH]2)cc1 (stereo not shown) [Example 7, 1-{2-[2-Cyclopentyl-1-(4-methanesulfonyl-phenyl)-ethyl]-1H-pyrrolo[2,3-b]pyridin-5-yl}-ethane-1,2-diol]"
4,0.742,"CN(C)C(=O)COc1cnc2[nH]c([C@H](CC3CCCC3)c3ccc(S(C)(=O)=O)cc3)cc2c1 (single isomer, unassigned) [Example 14]"
5,9.5,"CC(C)(O)c1ccc([C@@H](CC2CCCC2)c2cc3cc(C(=O)O)cnc3[nH]2)cc1F (single isomer, unassigned) [Example 58]"
6,0.178,"O=S(=O)(CCO)c1ccc(C(CC2CCCC2)c2cc3cc(F)cnc3[nH]2)cc1 (stereo not shown) [Example 88, 2-{4-[2-Cyclopentyl-1-(5-fluoro-1H-pyrrolo[2,3-b]pyridin-2-yl)-ethyl]-benzenesulfonyl}-ethanol]"
7,2.2,"CS(=O)(=O)c1ccc(C(CC2CCOCC2)c2cc3cc(Cl)cnc3[nH]2)cc1 (stereo not shown) [Example 114, 5-Chloro-2-[1-(4-methanesulfonyl-phenyl)-2-(tetrahydro-pyran-4-yl)-ethyl]-1H-pyrrolo[2,3-b]pyridine]"
8,9.9,"CC(C)CC(c1cccc(Cl)c1)c1cc2cccnc2[nH]1 (stereo not shown) [Example 131, 2-(1-(3-Chloro-phenyl)-3-methyl-butyl)-1H-pyrrolo[2,3-b]pyridine]"
9,0.654,"CS(=O)(=O)c1ccc(C(O)(CC2CCCC2)c2cc3cc(F)cnc3[nH]2)cc1 (stereo not shown) [Example 48, 2-Cyclopentyl-1-(5-fluoro-1H-pyrrolo[2,3-b]pyridin-2-yl)-1-(4-methanesulfonyl-phenyl)-ethanol]"

# Further lines, the compound ahead of its results:
row,Structure (SMILES),SC1.5 [µM]
1,"CC(C)(O)c1ccc(C(CC2CCCC2)c2cc3cccnc3[nH]2)cc1F (stereo not shown) [Example 95, 2-{4-[2-Cyclopentyl-1-(1H-pyrrolo[2,3-b]pyridin-2-yl)-ethyl]-2-fluoro-phenyl}-propan-2-ol]",0.379
2,"CS(=O)(=O)c1ccc(/C(=C\C2CCOCC2)c2cc3cc(F)cnc3[nH]2)cc1 [Example 122, 5-Fluoro-2-[(E)-1-(4-methanesulfonyl-phenyl)-2-(tetrahydro-pyran-4-yl)-vinyl]-1H-pyrrolo[2,3-b]pyridine]",0.051
3,"COc1cnc2[nH]c([C@H](CC3CCOCC3)c3ccc(S(C)(=O)=O)cc3)cc2c1 (single isomer, unassigned) [Example 32]",1.1
4,"COc1cnc2[nH]c(C(CC3CCCO3)c3ccc(S(C)(=O)=O)cc3)cc2c1 (single isomer, unassigned) [Example 22, 2-[1-(4-Methanesulfonyl-phenyl)-2-(tetrahydro-furan-2-yl)-ethyl]-5-methoxy-1H-pyrrolo[2,3-b]pyridine]",2.5
5,"CC(=O)c1ccc(C(CC2CCCC2)c2cc3cccnc3[nH]2)cc1 (stereo not shown) [Example 80, 1-{4-[2-Cyclopentyl-1-(1H-pyrrolo[2,3-b]pyridin-2-yl)-ethyl]-phenyl}-ethanone]",2.6
6,"CC(C)(Oc1cnc2[nH]c(C(CC3CCCC3)c3ccc(S(C)(=O)=O)cc3)cc2c1)C(=O)O (stereo not shown) [Example 27, 2-{2-[2-Cyclopentyl-1-(4-methanesulfonyl-phenyl)-ethyl]-1H-pyrrolo[2,3-b]pyridin-5-yloxy}-2-methyl-propionic acid]",13.5
7,"c1cnc2[nH]c(C(CC3CCCC3)c3ccc4c(c3)OCCO4)cc2c1 (stereo not shown) [Example 62, 2-[2-Cyclopentyl-1-(2,3-dihydro-benzo[1,4]-dioxin-6-yl)-ethyl]-1H-pyrrolo[2,3-b]pyridine]",6.0
8,"CS(=O)(=O)c1ccc(C(CC2CCC2)c2cc3cc(F)cnc3[nH]2)cc1 (stereo not shown) [Example 47, 2-[2-Cyclobutyl-1-(4-methanesulfonyl-phenyl)-ethyl]-5-fluoro-1H-pyrrolo[2,3-b]pyridine]",0.415
9,"CC(C)(CO)Oc1cnc2[nH]c([C@H](CC3CCCC3)c3ccc(S(C)(=O)=O)cc3)cc2c1 (single isomer, unassigned) [Example 29]",1.1
10,"CN(C)C(=O)Cc1cnc2[nH]c(C(CC3CCCC3)c3ccc(S(C)(=O)=O)cc3)cc2c1 (stereo not shown) [Example 39, 2-{2-[2-Cyclopentyl-1-(4-methanesulfonyl-phenyl)-ethyl]-1H-pyrrolo[2,3-b]pyridin-5-yl}-N,N-dimethyl-acetamide]",9.1
11,"CN(C)c1ccc(C(CC2CCCC2)c2cc3cccnc3[nH]2)cc1 (stereo not shown) [Example 65, {4-[2-Cyclopentyl-1-(1H-pyrrolo[2,3-b]pyridin-2-yl)-ethyl]-phenyl}-dimethyl-amine]",2.8
12,"CS(=O)(=O)c1ccc(C(O)(CC2CCCC2)c2cc3cc(F)cnc3[nH]2)cc1 (single isomer, unassigned) [Example 49, 2-Cyclopentyl-1-(5-fluoro-1H-pyrrolo[2,3-b]pyridin-2-yl)-1-(4-methanesulfonyl-phenyl)-ethanol]",0.354
13,"CS(=O)(=O)c1ccc(C(CC2CCCC2)c2cc3cc(C(=O)N4CCOCC4)cnc3[nH]2)cc1 (stereo not shown) [Example 4, {2-[2-Cyclopentyl-1-(4-methanesulfonyl-phenyl)-ethyl]-1H-pyrrolo[2,3-b]pyridin-5-yl}-morpholin-4-yl-methanone]",10.5
14,"CS(=O)(=O)c1ccc(C(CC2CCC2)c2cc3cccnc3[nH]2)cc1C(F)(F)F (stereo not shown) [Example 77, 2-[2-Cyclobutyl-1-(4-methanesulfonyl-3-trifluoromethyl-phenyl)-ethyl]-1H-pyrrolo[2,3-b]pyridine]",0.692
15,"CC(C)(CO)Oc1cnc2[nH]c(C(CC3CCCC3)c3ccc(S(C)(=O)=O)cc3)cc2c1 (stereo not shown) [Example 28, 2-{2-[2-Cyclopentyl-1-(4-methanesulfonyl-phenyl)-ethyl]-1H-pyrrolo[2,3-b]pyridin-5-yloxy}-2-methyl-propan-1-ol]",2.8
16,"CC(C)(O)c1ccc([C@@H](CC2CCCC2)c2cc3cc(F)cnc3[nH]2)cc1F (single isomer, unassigned) [Example 104]",0.081
17,"COc1cnc2[nH]c(C(CC3CCCO3)c3ccc(S(C)(=O)=O)cc3)cc2c1 (single isomer, unassigned) [Example 24, 2-[1-(4-Methanesulfonyl-phenyl)-2-(tetrahydro-furan-2-yl)-ethyl]-5-methoxy-1H-pyrrolo[2,3-b]pyridine]",2.0
18,"CCOc1cccc(C(CC(C)C)c2cc3cccnc3[nH]2)c1 (stereo not shown) [Example 133, 2-(1-(3-Ethoxy-phenyl)-3-methyl-butyl)-1H-pyrrolo[2,3-b]pyridine]",25.0
19,"CC(C)(C)/C=C(\c1ccc(S(C)(=O)=O)cc1)c1cc2cccnc2[nH]1 [Example 73, 2-[(E)-1-(4-Methanesulfonyl-phenyl)-3,3-dimethyl-but-1-enyl]-1H-pyrrolo[2,3-b]pyridine]",0.653

# System: C57BL/6J mice
# Assay: Glucokinase activator in vivo screen, blood glucose after oral gavage in lean and diet induced obese mice
# Conditions: Mus musculus; vs control at 2 hours post 25 mg/kg oral dose, C57B6 mice; read-out: % gluc lowering @ 2 H
# Experimental: Glucokinase Activator in vivo Screen Protocol in Lean and Diet Induced Obese Mice: Lean or Diet-Induced Obese (DIO) C57BL/6J mice were orally dosed via gavage with Glucokinase (GK) activator following a two hour fasting period. Blood glucose determinations were made at various (e.g. 0, 1, 2, 4 and 8 hours post-oral gavage) times during the study.
# C57Bl/6J mice were obtained from Jackson Laboratory (Bar Harbor, Me.) and were maintained in a light-dark cycle with lights on from 0600-1800 hr. For studies in lean mice, the mice were received at age ten weeks and given ad libitum access to control diet (LabDiet 5001 chow, PMI Nutrition, Brentwood, Mo.), and were at least age 11 weeks at the time of study. For studies in the DIO model, the mice were received at age five weeks and given ad libitum access to Bio-Sery F3282 High Fat Diet (Frenchtown, N.J.), and were at least age 16 weeks at the time of study. The experiments were conducted during the light phase of the light-dark cycle. Mice (n=6) are weighed and fasted for a two hour period prior to oral treatment. GK activators are formulated in Gelucire vehicle (Ethanol:Gelucire44/14:PEG400q.s. 4:66:30 v/w/v. For studies in lean mice, the mice were dosed orally with 5.04 per gram of body weight (i.e. 5 ml/kg×10.0 mg/ml formulation to equal a 50 mg/kg dose). For studies in DIO mice, the mice were dosed orally with 5.04 per gram of body weight (i.e. 5.0 ml/kg×5 mg/ml formulation to equal a 25 mg/kg dose). Immediately prior to dosing, a pre-dose (time zero) blood glucose reading was acquired by snipping off a small portion of the animal's tail and collecting […] blood into a heparinized capillary tube for analysis. Following GK activator administration, additional blood glucose readings were taken at various time points post dose from the same tail wound. Results were interpreted by comparing the mean blood glucose values of vehicle treated mice with GK activator treated mice over the study period.
# The Table below provides data for % glucose lowering of a representative number of compounds of the present invention vs control at 2 hours post 25 or 50 mg/kg dose in C57B6 mice: […]
row,Structure (SMILES),change in vivo at 25 mg/kg [%]
1,"CS(=O)(=O)c1ccc(/C(=C\C2CCOCC2)c2cc3cc(F)cnc3[nH]2)cc1 [Example 122, 5-Fluoro-2-[(E)-1-(4-methanesulfonyl-phenyl)-2-(tetrahydro-pyran-4-yl)-vinyl]-1H-pyrrolo[2,3-b]pyridine]",-59.4
2,"COc1cnc2[nH]c([C@H](CC3CCOCC3)c3ccc(S(C)(=O)=O)cc3)cc2c1 (single isomer, unassigned) [Example 32]",-23.4
3,"COc1cnc2[nH]c(C(CC3CCCO3)c3ccc(S(C)(=O)=O)cc3)cc2c1 (single isomer, unassigned) [Example 22, 2-[1-(4-Methanesulfonyl-phenyl)-2-(tetrahydro-furan-2-yl)-ethyl]-5-methoxy-1H-pyrrolo[2,3-b]pyridine]",-6.3

# Same assay, conditions: Mus musculus; vs control at 2 hours post 50 mg/kg oral dose, C57B6 mice; read-out: % gluc lowering @ 2 H
row,Structure (SMILES),change in vivo at 50 mg/kg [%]
1,"CC(C)(O)c1ccc(C(CC2CCCC2)c2cc3cccnc3[nH]2)cc1F (stereo not shown) [Example 95, 2-{4-[2-Cyclopentyl-1-(1H-pyrrolo[2,3-b]pyridin-2-yl)-ethyl]-2-fluoro-phenyl}-propan-2-ol]",-49.4
2,"Clc1ccc(C(CC2CCCC2)c2cc3cccnc3[nH]2)cc1Cl (stereo not shown) [Example 139, 2-[2-Cyclopentyl-1-(3,4-dichloro-phenyl)-ethyl]-1H-pyrrolo[2,3-b]pyridine]",25.4
